Tests used:
HL-60 [1] = assay: Cytotoxicity against human HL60 cells by MTS assay; format: functional, cell-based
Calf thymus DNA = assay: Displacement of ethidium bromide from calf thymus DNA by fluorometric assay; format: nucleic-acid assay; conditions: Bos taurus
HL-60 [2] = assay: Growth inhibition of human HL60 cells; format: functional

Row | Compound | IC50 (HL-60 [1]) | further results
1 | CN(C)CCNC(=O)c1cccc2c(NCCCCCCN)c3ccccc3nc12 | 0.45 µM | Kapp (Calf thymus DNA): 3.1 ×10⁷ /M
2 | CN(C)CCNC(=O)c1ccc2c(NCCCCCCNC(=O)c3ccc4ccccc4n3)c3ccccc3nc2c1 | 30.7 µM | –
3 | CN(C)CCNC(=O)c1cccc2c(NCCCCCCNC(=O)c3ccc4ccccc4n3)c3ccccc3nc12 | 22.6 µM | –
4 | CN(C)CCNC(=O)c1ccc2c(NCCCCCCNS(=O)(=O)c3cccc4cccnc34)c3ccccc3nc2c1 | 35.8 µM | –
5 | CN(C)CCNC(=O)c1cccc2c(NCCCCCCNC(=O)c3cccc4ccccc34)c3ccccc3nc12 | 3.5 µM | –
6 | Nc1c2ccccc2nc2ccccc12 [AMINACRINE] | – | Kapp (Calf thymus DNA): 1.8 ×10⁶ /M; logKA (Calf thymus DNA): 6.26; GI50 (HL-60 [2]): 2 µM
7 | CN(C)CCNC(=O)c1cccc2c(NCCCCCCNS(=O)(=O)c3cccc4cccnc34)c3ccccc3nc12 | 16 µM | –
8 | CN(C)CCNC(=O)c1cccc2c(NCCCCCCNS(=O)(=O)c3cccc4c(N(C)C)cccc34)c3ccccc3nc12 | 2.1 µM | –
9 | CN(C)CCNC(=O)c1ccc2c(NCCCCCCN)c3ccccc3nc2c1 | 38.3 µM | Kapp (Calf thymus DNA): 9.83 ×10⁶ /M
10 | CN(C)CCNC(=O)c1ccc2c(NCCCCCCNS(=O)(=O)c3cccc4c(N(C)C)cccc34)c3ccccc3nc2c1 | 26.7 µM | –
11 | CN(C)CCNC(=O)c1ccc2c(NCCCCCCNC(=O)c3cccc4ccccc34)c3ccccc3nc2c1 | 58.9 µM | –
